Assay results as given in ChEMBL document CHEMBL4130416, “Glycine-replaced derivatives of [Pro3,DLeu9]TL, a temporin L analogue: Evaluation of antimicrobial, cytotoxic and hemolytic activities” (Eur J Med Chem, 2017).
Values after ≈ are worked out from the molar mass of the structure shown. Active and inactive are the calls of the source. The calls are words filed in the database; no cut-off is given here. Where a SMILES comes first, the peptide text is derived from it. [ ]: non-standard residue; d: D form.

What was measured:
[1] = tested on: Acinetobacter baumannii; test: Antimicrobial activity against Acinetobacter baumannii ATCC 19606 after 18 to 20 hrs by microbroth dilution method; type: functional; conditions: ATCC 19606 = CIP 70.34 = JCM 6841
[2] = tested on: Pseudomonas aeruginosa; test: Antimicrobial activity against Pseudomonas aeruginosa ATCC 27853 after 18 to 20 hrs by microbroth dilution method; type: functional
[3] = tested on: Priestia megaterium; test: Antimicrobial activity against Bacillus megaterium Bm11 after 18 to 20 hrs by microbroth dilution method; type: functional
[4] = tested on: HaCaT; test: Cytotoxicity against human HaCaT cells at 12.5 uM after 24 hrs by MTT assay relative to control; type: cell-based
[5] = Hemolytic activity against human erythrocytes at 6.25 uM after 40 mins relative to control; type: ADME, cell-based, Erythrocyte; conditions: read-out: Activity
[6] = tested on: Staphylococcus aureus; test: Antimicrobial activity against methicillin resistant Staphylococcus aureus clinical isolate 2 after 18 to 20 hrs by microbroth dilution method; type: functional
[7] = tested on: Candida albicans; test: Antimicrobial activity against Candida albicans clinical isolate 1 after 18 to 20 hrs by microbroth dilution method; type: functional
[8] = Hemolytic activity against human erythrocytes at 3.125 uM after 40 mins relative to control; type: ADME, cell-based, Erythrocyte; conditions: read-out: Activity
[9] = Hemolytic activity against human erythrocytes at 50 uM after 40 mins relative to control; type: ADME, cell-based, Erythrocyte; conditions: read-out: Activity
[10] = tested on: HaCaT; test: Cytotoxicity against human HaCaT cells at 1.56 to 6.25 uM after 24 hrs by MTT assay; type: cell-based
[11] = tested on: Escherichia coli; test: Antimicrobial activity against multisensitive Escherichia coli clinical isolate 1 after 18 to 20 hrs by microbroth dilution method; type: functional
[12] = tested on: Candida albicans; test: Antimicrobial activity against Candida albicans ATCC 10231 after 18 to 20 hrs by microbroth dilution method; type: functional
[13] = tested on: Staphylococcus aureus; test: Antimicrobial activity against Staphylococcus aureus Cowan I after 18 to 20 hrs by microbroth dilution method; type: functional
[14] = tested on: Pseudomonas aeruginosa; test: Antimicrobial activity against multisensitive Pseudomonas aeruginosa after 18 to 20 hrs by microbroth dilution method; type: functional
[15] = tested on: HaCaT; test: Cytotoxicity against human HaCaT cells at 50 uM after 24 hrs by MTT assay relative to control; type: cell-based
[16] = tested on: Pichia kudriavzevii; test: Antimicrobial activity against Candida krusei ATCC 6258 after 18 to 20 hrs by microbroth dilution method; type: functional
[17] = tested on: Staphylococcus aureus; test: Antimicrobial activity against multisensitive Staphylococcus aureus after 18 to 20 hrs by microbroth dilution method; type: functional
[18] = tested on: Staphylococcus epidermidis; test: Antimicrobial activity against Staphylococcus epidermidis ATCC 12228 after 18 to 20 hrs by microbroth dilution method; type: functional
[19] = Metabolic stability in 90% human serum assessed as parent compound remaining at […] after 120 mins by RP-UHPLC analysis; type: ADME, cell-free; conditions: read-out: Stability
[20] = tested on: Escherichia coli; test: Antimicrobial activity against multisensitive Escherichia coli clinical isolate 2 after 18 to 20 hrs by microbroth dilution method; type: functional
[21] = tested on: Staphylococcus aureus; test: Antimicrobial activity against beta-lactamase resistant Staphylococcus aureus after 18 to 20 hrs by microbroth dilution method; type: functional
[22] = tested on: HaCaT; test: Cytotoxicity against human HaCaT cells at 25 uM after 24 hrs by MTT assay relative to control; type: cell-based
[23] = tested on: Staphylococcus epidermidis; test: Antimicrobial activity against Staphylococcus epidermidis ATCC 12228 assessed as membrane-perturbation measured every minute for 120 mins by SYTOX green fluorescence dye influx assay; type: functional, organism-based
[24] = Hemolytic activity against human erythrocytes at 25 uM after 40 mins relative to control; type: ADME, cell-based, Erythrocyte; conditions: read-out: Activity
[25] = tested on: Klebsiella pneumoniae; test: Antimicrobial activity against multisensitive Klebsiella pneumoniae after 18 to 20 hrs by microbroth dilution method; type: functional
[26] = Metabolic stability in 90% human serum assessed as parent compound remaining at 0.2 mM after 45 mins by RP-UHPLC analysis; type: ADME, cell-free; conditions: read-out: Stability
[27] = tested on: Acinetobacter baumannii; test: Antimicrobial activity against Acinetobacter baumannii ATCC 19606 assessed as induction of membrane-perturbation at MIC measured every minute for 120 mins by SYTOX green fluorescence dye influx assay; type: functional, organism-based; conditions: ATCC 19606 = CIP 70.34 = JCM 6841
[28] = Hemolytic activity against human erythrocytes at 12.5 uM after 40 mins relative to control; type: ADME, cell-based, Erythrocyte; conditions: read-out: Activity
[29] = tested on: Escherichia coli; test: Antimicrobial activity against Escherichia coli D21 after 18 to 20 hrs by microbroth dilution method; type: functional
[30] = tested on: Candida albicans; test: Antimicrobial activity against Candida albicans clinical isolate 2 after 18 to 20 hrs by microbroth dilution method; type: functional
[31] = tested on: Staphylococcus aureus; test: Antimicrobial activity against methicillin resistant Staphylococcus aureus clinical isolate 1 after 18 to 20 hrs by microbroth dilution method; type: functional
[32] = tested on: Pseudomonas syringae; test: Antimicrobial activity against Pseudomonas syringae pv tabaci NCPPB 1918 after 18 to 20 hrs by microbroth dilution method; type: functional, Pseudomonas amygdali pv. tabaci
[33] = tested on: Staphylococcus aureus; test: Antimicrobial activity against macrolid resistant Staphylococcus aureus after 18 to 20 hrs by microbroth dilution method; type: functional
[34] = tested on: Candida albicans; test: Antimicrobial activity against Candida albicans ATCC 10231 assessed as induction of membrane-perturbation at MIC measured every minute for 10 mins by SYTOX green fluorescence dye influx assay; type: functional, organism-based
[35] = tested on: HaCaT; test: Cytotoxicity against human HaCaT cells at 6.25 uM after 24 hrs by MTT assay relative to control; type: cell-based

Q: With `CC[C@H](C)[C@H](NC(=O)[C@H](CCCNC(=N)N)NC(=O)[C@H](Cc1c[nH]c2ccccc12)NC(=O)[C@@H](CC(C)C)NC(=O)[C@H](Cc1ccccc1)NC(=O)[C@H](CCCCN)NC(=O)[C@H](CO)NC(=O)[C@H](Cc1ccccc1)NC(=O)[C@H](Cc1c[nH]c2ccccc12)NC(=O)[C@@H]1CCCN1C(=O)[C@@H](NC(=O)[C@@H](N)Cc1ccccc1)C(C)C)C(=O)N[C@@H](CC(C)C)C(N)=O` (H-FVPWFSKF[dL]WRIL-NH2) as the compound, how does the MIC [1] read?
A: 3.12 µM (≈ 5.43 µg/mL)

Q: And the MIC [2]?
A: > 50 µM

Q: What about the MIC [3] of the same compound?
A: 1.56 µM (≈ 2.71 µg/mL)

Q: What about the Activity [4] of the same compound?
A: 0%

Q: And the hemolysis at 40 min, 6.25 µM [5]?
A: 4%

Q: And the MIC [6]?
A: 6.25 µM (≈ 10.9 µg/mL)

Q: What about the MIC [7] of the same compound?
A: 25 µM (≈ 43.5 µg/mL)

Q: And the hemolysis at 40 min, 3.125 µM [8]?
A: 2%

Q: And the hemolysis at 40 min, 50 µM [9]?
A: 37%

Q: What about the Activity [10] of the same compound?
A: Non-Toxic

Q: And the MIC [11]?
A: 50 µM (≈ 86.9 µg/mL)

Q: What about the MIC [12] of the same compound?
A: 3.12 µM (≈ 5.43 µg/mL)

Q: And the MIC [13]?
A: 3.12 µM (≈ 5.43 µg/mL)

Q: And the MIC [14]?
A: > 50 µM

Q: And the Activity [15]?
A: 89.3%

Q: And the MIC [16]?
A: 3.12 µM (≈ 5.43 µg/mL)

Q: What about the MIC [17] of the same compound?
A: 6.25 µM (≈ 10.9 µg/mL)

Q: What about the MIC [18] of the same compound?
A: 1.56 µM (≈ 2.71 µg/mL)

Q: What about the remaining at 2 h [19] of the same compound?
A: 50%

Q: And the MIC [20]?
A: 50 µM (≈ 86.9 µg/mL)

Q: And the MIC [21]?
A: 6.25 µM (≈ 10.9 µg/mL)

Q: What about the Activity [22] of the same compound?
A: 32.1%

Q: And the Activity [23]?
A: Active

Q: And the hemolysis at 40 min, 25 µM [24]?
A: 20%

Q: What about the MIC [25] of the same compound?
A: > 50 µM

Q: What about the remaining at 0.75 h, 200 µM [26] of the same compound?
A: 80%

Q: What about the Activity [27] of the same compound?
A: Active

Q: What about the hemolysis at 40 min, 12.5 µM [28] of the same compound?
A: 7%

Q: What about the MIC [29] of the same compound?
A: 25 µM (≈ 43.5 µg/mL)

Q: What about the MIC [30] of the same compound?
A: 25 µM (≈ 43.5 µg/mL)

Q: What about the MIC [31] of the same compound?
A: 6.25 µM (≈ 10.9 µg/mL)

Q: And the MIC [32]?
A: 1.56 µM (≈ 2.71 µg/mL)

Q: And the MIC [33]?
A: 6.25 µM (≈ 10.9 µg/mL)

Q: And the Activity [34]?
A: Active

Q: What does the source list for `CC[C@H](C)[C@H](NC(=O)[C@H](CCCNC(=N)N)NC(=O)CNC(=O)[C@@H](CC(C)C)NC(=O)[C@H](Cc1ccccc1)NC(=O)[C@H](CCCCN)NC(=O)[C@H](CO)NC(=O)[C@H](Cc1ccccc1)NC(=O)[C@H](Cc1c[nH]c2ccccc12)NC(=O)[C@@H]1CCCN1C(=O)[C@@H](NC(=O)[C@@H](N)Cc1ccccc1)C(C)C)C(=O)N[C@@H](CC(C)C)C(N)=O` (H-FVPWFSKF[dL]GRIL-NH2)?
A: MIC [1]: 12.5 µM (≈ 20.1 µg/mL); MIC [2]: 50 µM (≈ 80.4 µg/mL); MIC [3]: 3.12 µM (≈ 5.03 µg/mL); Activity [4]: 20.63%; hemolysis at 40 min, 6.25 µM [5]: 3%; MIC [6]: 12.5 µM (≈ 20.1 µg/mL); MIC [7]: 25 µM (≈ 40.2 µg/mL); hemolysis at 40 min, 3.125 µM [8]: 1%; hemolysis at 40 min, 50 µM [9]: 21%; Activity [10]: Non-Toxic; MIC [11]: 50 µM (≈ 80.4 µg/mL); MIC [12]: 3.12 µM (≈ 5.03 µg/mL); MIC [13]: 12.5 µM (≈ 20.1 µg/mL); MIC [14]: > 50 µM; Activity [15]: 91.58%; MIC [16]: 3.12 µM (≈ 5.03 µg/mL); MIC [17]: 12.5 µM (≈ 20.1 µg/mL); MIC [18]: 6.25 µM (≈ 10.1 µg/mL); remaining at 2 h [19]: 20%; MIC [20]: 50 µM (≈ 80.4 µg/mL); MIC [21]: 12.5 µM (≈ 20.1 µg/mL); Activity [22]: 57.52%; hemolysis at 40 min, 25 µM [24]: 7%; MIC [25]: > 50 µM; remaining at 0.75 h, 200 µM [26]: 45%; hemolysis at 40 min, 12.5 µM [28]: 6%; MIC [29]: 12.5 µM (≈ 20.1 µg/mL); MIC [30]: 25 µM (≈ 40.2 µg/mL); MIC [31]: 12.5 µM (≈ 20.1 µg/mL); MIC [32]: 12.5 µM (≈ 20.1 µg/mL); MIC [33]: 12.5 µM (≈ 20.1 µg/mL)

Q: For `CCCC[C@@H](NC(=O)[C@@H](CC(C)C)NC(=O)[C@H](Cc1ccccc1)NC(=O)[C@H](CCCCN)NC(=O)[C@H](CO)NC(=O)[C@H](Cc1ccccc1)NC(=O)[C@H](Cc1c[nH]c2ccccc12)NC(=O)[C@@H]1CCCN1C(=O)[C@@H](NC(=O)[C@@H](N)Cc1ccccc1)C(C)C)C(=O)N[C@@H](CCCNC(=N)N)C(=O)NC(C(=O)N[C@@H](CC(C)C)C(N)=O)[C@@H](C)CC` (single isomer, unassigned), which Activity [35] is on record?
A: 15%

Q: What about the MIC [1] of the same compound?
A: 6.25 µM (≈ 10.4 µg/mL)

Q: And the MIC [2]?
A: 50 µM (≈ 83.3 µg/mL)

Q: And the MIC [3]?
A: 1.56 µM (≈ 2.6 µg/mL)

Q: And the Activity [4]?
A: 39.96%

Q: What about the MIC [12] of the same compound?
A: 3.12 µM (≈ 5.2 µg/mL)

Q: And the MIC [13]?
A: 3.12 µM (≈ 5.2 µg/mL)

Q: What about the Activity [15] of the same compound?
A: 96.64%

Q: What about the MIC [16] of the same compound?
A: 1.56 µM (≈ 2.6 µg/mL)

Q: What about the MIC [18] of the same compound?
A: 3.12 µM (≈ 5.2 µg/mL)

Q: And the Activity [22]?
A: 72.81%

Q: What about the MIC [29] of the same compound?
A: 25 µM (≈ 41.6 µg/mL)

Q: And the MIC [32]?
A: 3.12 µM (≈ 5.2 µg/mL)
